Literature values, collected in paper PMC3197600 (PLoS Pathogens, 2011).

Test system: oseltamivir-resistant His274Tyr H1N1 infection
Details: human, in vivo; cited from earlier work

SMILES: [H]/N=C(\N)N[C@H]1C=C(C(=O)O)O[C@@H]([C@H](OC)[C@H](O)COC(=O)CCCCCCC)[C@@H]1NC(C)=O [CS-8958, laninamivir octanoate]
- effectiveness compared with oseltamivir: not significantly better than oseltamivir
